*1 amine or outer side, *2 acyl side, *3 side chain or, on linkers, in order; H or OH if unused. Where a SMILES comes first, the peptide text is derived from it. Side-chain parts run from the residue outwards. γGlu = O=C(O)[C@H](CCC(=O)[*:2])N[*:1]
Target: T1, glucagon receptor (Homo sapiens, UniProt P47871)
T1 construct: expressed in transfected cells
Test: Assay (I) Glucagon activity (cAMP biosensor, FLIPR)
Format: cell-based
Details: HEK-293 cells with cloned glucagon receptor and cAMP biosensor; end point after 6 minutes
Summary of the method: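 HEK-293 cells expressing glucagon receptor with membrane cAMP biosensor (ACTOne), calcium-dye loaded with probenecid and a PDE inhibitor.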

T1 sequence (P47871 26-477): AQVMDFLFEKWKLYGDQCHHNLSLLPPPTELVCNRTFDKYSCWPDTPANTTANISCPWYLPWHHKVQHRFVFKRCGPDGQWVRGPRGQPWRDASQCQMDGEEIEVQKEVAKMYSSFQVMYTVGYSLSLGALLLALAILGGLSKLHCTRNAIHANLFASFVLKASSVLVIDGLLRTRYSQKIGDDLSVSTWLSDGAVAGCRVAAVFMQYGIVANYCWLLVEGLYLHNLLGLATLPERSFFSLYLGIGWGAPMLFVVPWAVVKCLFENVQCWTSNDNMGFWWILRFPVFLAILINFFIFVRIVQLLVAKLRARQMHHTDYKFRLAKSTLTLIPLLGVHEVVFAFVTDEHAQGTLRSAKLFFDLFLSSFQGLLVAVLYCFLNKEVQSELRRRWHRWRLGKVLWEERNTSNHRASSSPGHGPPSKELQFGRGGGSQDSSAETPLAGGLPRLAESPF

Compound | EC50 [pM]
CC(=O)N[C@@H](CCC(=O)N[C@@H](CCC(=O)N[C@@H](CCC(=O)N[C@@H](CCC(=O)NCCCC[C@H](NC(=O)[C@@H](NC(=O)[C@H](Cc1ccccc1)NC(=O)[C@H](CC(=O)O)NC(=O)[C@H](CCC(N)=O)NC(=O)[C@H](C)NC(=O)[C@H](CCCNC(=N)N)NC(=O)[C@H](CCCNC(=N)N)NC(=O)[C@H](CC(C)C)NC(=O)[C@H](CC(=O)O)NC(=O)[C@H](CC(C)C)NC(=O)[C@H](Cc1ccc(O)cc1)NC(=O)[C@H](CCCNC(=N)N)NC(=O)[C@H](CO)NC(=O)[C@H](Cc1ccc(O)cc1)NC(=O)[C@H](CC(=O)O)NC(=O)[C@H](CO)NC(=O)[C@@H](NC(=O)[C@H](Cc1ccccc1)NC(=O)[C@@H](NC(=O)CNC(=O)[C@H](CCC(N)=O)NC(=O)[C@H](CO)NC(=O)[C@@H](N)Cc1c[nH]cn1)[C@@H](C)O)[C@@H](C)O)C(C)C)C(=O)N[C@@H](Cc1c[nH]c2ccccc12)C(=O)N[C@@H](CC(C)C)C(=O)N[C@@H](CC(C)C)C(=O)N[C@@H](CO)C(=O)N[C@H](C(=O)N1CCC[C@H]1C(=O)O)[C@@H](C)O)C(=O)O)C(=O)O)C(=O)O)C(=O)O [Example 40, N^ε24-[(4S)-4-[[(4S)-4-[[(4S)-4-[[(4S)-4-acetamido-4-carboxybutanoyl]amino]-4-carboxybutanoyl]amino]-4-carboxybutanoyl]amino]-4-carboxybutanoyl]-[Arg12,Leu16,Lys24,Leu27,Ser28]-Glucagonyl-Pro] (H-HSQGTFTSDYSRYLDLRRAQDFVK([γGlu-γGlu-γGlu-γGlu-Ac])WLLSTP-OH) | 3
CC(=O)N[C@@H](CCC(=O)N[C@@H](CCC(=O)N[C@@H](CCC(=O)N[C@@H](CCC(=O)NCCCC[C@H](NC(=O)[C@@H](NC(=O)[C@H](Cc1ccccc1)NC(=O)[C@H](CC(=O)O)NC(=O)[C@H](CCC(N)=O)NC(=O)[C@H](C)NC(=O)[C@H](CCCNC(=N)N)NC(=O)[C@H](CCCNC(=N)N)NC(=O)[C@H](CC(C)C)NC(=O)[C@H](CC(=O)O)NC(=O)[C@H](CC(C)C)NC(=O)[C@H](Cc1ccc(O)cc1)NC(=O)[C@H](CCCCN)NC(=O)[C@H](CO)NC(=O)[C@H](Cc1ccc(O)cc1)NC(=O)[C@H](CC(=O)O)NC(=O)[C@H](CO)NC(=O)[C@@H](NC(=O)[C@H](Cc1ccccc1)NC(=O)[C@@H](NC(=O)CNC(=O)[C@H](CCC(N)=O)NC(=O)[C@@H](NC(=O)[C@@H](N)Cc1c[nH]cn1)[C@@H](C)O)[C@@H](C)O)[C@@H](C)O)C(C)C)C(=O)N[C@@H](Cc1c[nH]c2ccccc12)C(=O)N[C@@H](CC(C)C)C(=O)N[C@@H](CC(C)C)C(=O)N[C@@H](CO)C(=O)N[C@H](C(=O)O)[C@@H](C)O)C(=O)O)C(=O)O)C(=O)O)C(=O)O [Example 41, N^e24-[(4S)-4-[[(4S)-4-[[(4S)-4-[[(4S)-4-acetamido-4-carboxybutanoyl]amino]-4-carboxybutanoyl]amino]-4-carboxybutanoyl]amino]-4-carboxybutanoyl]-[Thr^2,Leu^16,Lys^24,Leu^27,Ser^28]-Glucagon] (H-HTQGTFTSDYSKYLDLRRAQDFVK([γGlu-γGlu-γGlu-γGlu-Ac])WLLST-OH) | 3
CC(=O)N[C@@H](CCC(=O)N[C@@H](CCC(=O)N[C@@H](CCC(=O)N[C@@H](CCC(=O)NCCCC[C@H](NC(=O)[C@@H](NC(=O)[C@H](Cc1ccccc1)NC(=O)[C@H](CC(=O)O)NC(=O)[C@H](CCC(N)=O)NC(=O)[C@H](C)NC(=O)[C@H](CCCNC(=N)N)NC(=O)[C@H](CCCNC(=N)N)NC(=O)[C@H](CC(C)C)NC(=O)[C@H](CC(=O)O)NC(=O)[C@H](CC(C)C)NC(=O)[C@H](Cc1ccc(O)cc1)NC(=O)[C@H](CCCCN)NC(=O)[C@H](CO)NC(=O)[C@H](Cc1ccc(O)cc1)NC(=O)[C@H](CC(=O)O)NC(=O)[C@H](CO)NC(=O)[C@@H](NC(=O)[C@H](Cc1ccccc1)NC(=O)[C@@H](NC(=O)CNC(=O)[C@H](CCC(N)=O)NC(=O)[C@H](C)NC(=O)[C@@H](N)Cc1c[nH]cn1)[C@@H](C)O)[C@@H](C)O)C(C)C)C(=O)N[C@@H](Cc1c[nH]c2ccccc12)C(=O)N[C@@H](CC(C)C)C(=O)N[C@@H](CC(C)C)C(=O)N[C@@H](CO)C(=O)N[C@H](C(=O)O)[C@@H](C)O)C(=O)O)C(=O)O)C(=O)O)C(=O)O [Example 42] (H-HAQGTFTSDYSKYLDLRRAQDFVK([γGlu-γGlu-γGlu-γGlu-Ac])WLLST-OH) | 8
CC(=O)N[C@@H](CCC(=O)N[C@@H](CCC(=O)N[C@@H](CCC(=O)N[C@@H](CCC(=O)NCCCC[C@H](NC(=O)[C@@H](NC(=O)[C@H](Cc1ccccc1)NC(=O)[C@H](CC(=O)O)NC(=O)[C@H](CCC(N)=O)NC(=O)[C@H](C)NC(=O)[C@H](CCCNC(=N)N)NC(=O)[C@H](CCCNC(=N)N)NC(=O)[C@H](CC(C)C)NC(=O)[C@H](CC(=O)O)NC(=O)[C@H](CC(C)C)NC(=O)[C@H](Cc1ccc(O)cc1)NC(=O)[C@H](CCCCN)NC(=O)[C@H](CO)NC(=O)[C@@H](NC(=O)[C@H](CC(=O)O)NC(=O)[C@H](CO)NC(=O)[C@@H](NC(=O)[C@H](Cc1ccccc1)NC(=O)[C@@H](NC(=O)CNC(=O)[C@H](CCC(N)=O)NC(=O)[C@H](CO)NC(=O)[C@@H](N)Cc1c[nH]cn1)[C@@H](C)O)[C@@H](C)O)C(C)C)C(C)C)C(=O)N[C@@H](Cc1c[nH]c2ccccc12)C(=O)N[C@@H](CC(C)C)C(=O)N[C@@H](CC(C)C)C(=O)N[C@@H](CO)C(=O)N[C@H](C(=O)O)[C@@H](C)O)C(=O)O)C(=O)O)C(=O)O)C(=O)O [Example 43, N^ε24-[(4S)-4-[[(4S)-4-[[(4S)-4-[[(4S)-4-acetamido-4-carboxybutanoyl]amino]-4-carboxybutanoyl]amino]-4-carboxybutanoyl]amino]-4-carboxybutanoyl]-[Val^10,Leu^16,Lys^24,Leu^27,Ser^28]-Glucagon] (H-HSQGTFTSDVSKYLDLRRAQDFVK([γGlu-γGlu-γGlu-γGlu-Ac])WLLST-OH) | 16
CC(=O)N[C@@H](CCC(=O)N[C@@H](CCC(=O)N[C@@H](CCC(=O)N[C@@H](CCC(=O)NCCCC[C@H](NC(=O)[C@@H](NC(=O)[C@H](Cc1ccccc1)NC(=O)[C@H](CC(=O)O)NC(=O)[C@H](CCC(N)=O)NC(=O)[C@H](C)NC(=O)[C@H](CCCNC(=N)N)NC(=O)[C@H](CCCNC(=N)N)NC(=O)[C@H](CO)NC(=O)[C@H](CCC(=O)O)NC(=O)[C@H](CC(C)C)NC(=O)[C@H](Cc1ccc(O)cc1)NC(=O)[C@H](CCCCN)NC(=O)[C@H](CO)NC(=O)[C@@H](NC(=O)[C@H](CC(=O)O)NC(=O)[C@H](CO)NC(=O)[C@@H](NC(=O)[C@H](Cc1ccccc1)NC(=O)[C@@H](NC(=O)CNC(=O)[C@H](CCC(N)=O)NC(=O)[C@H](CO)NC(=O)[C@@H](N)Cc1c[nH]cn1)[C@@H](C)O)[C@@H](C)O)C(C)C)C(C)C)C(=O)N[C@@H](Cc1c[nH]c2ccccc12)C(=O)N[C@@H](CC(C)C)C(=O)N[C@@H](CC(C)C)C(=O)N[C@@H](CO)C(=O)N[C@H](C(=O)O)[C@@H](C)O)C(=O)O)C(=O)O)C(=O)O)C(=O)O [Example 44, N^ε24-[(4S)-4-[[(4S)-4-[[(4S)-4-[[(4S)-4-acetamido-4-carboxybutanoyl]amino]-4-carboxybutanoyl]amino]-4-carboxybutanoyl]amino]-4-carboxybutanoyl]-[Val^10,Glu^15,Lys^24,Leu^27,Ser^28]-Glucagon] (H-HSQGTFTSDVSKYLESRRAQDFVK([γGlu-γGlu-γGlu-γGlu-Ac])WLLST-OH) | 75

Continued by falling EC50, values first:

EC50 [pM] | Compound
3 | CC(=O)N[C@@H](CCC(=O)N[C@@H](CCC(=O)N[C@@H](CCC(=O)N[C@@H](CCC(=O)NCCCC[C@H](NC(=O)[C@@H](NC(=O)[C@H](Cc1ccccc1)NC(=O)[C@H](CC(=O)O)NC(=O)[C@H](CCC(N)=O)NC(=O)[C@H](C)NC(=O)[C@H](CCCNC(=N)N)NC(=O)[C@H](CCCNC(=N)N)NC(=O)[C@H](CC(C)C)NC(=O)[C@H](CC(=O)O)NC(=O)[C@H](CC(C)C)NC(=O)[C@H](Cc1ccc(O)cc1)NC(=O)[C@H](CCCNC(=N)N)NC(=O)[C@H](CO)NC(=O)[C@H](Cc1ccc(O)cc1)NC(=O)[C@H](CC(=O)O)NC(=O)[C@H](CO)NC(=O)[C@@H](NC(=O)[C@H](Cc1ccccc1)NC(=O)[C@@H](NC(=O)CNC(=O)[C@H](CCC(N)=O)NC(=O)[C@H](CO)NC(=O)[C@@H](N)Cc1c[nH]cn1)[C@@H](C)O)[C@@H](C)O)C(C)C)C(=O)N[C@@H](Cc1c[nH]c2ccccc12)C(=O)N[C@@H](CC(C)C)C(=O)N[C@@H](CC(C)C)C(=O)N[C@@H](CO)C(=O)N[C@H](C(=O)O)[C@@H](C)O)C(=O)O)C(=O)O)C(=O)O)C(=O)O [Example 39, N^ε24-[(4S)-4-[[(4S)-4-[[(4S)-4-[[(4S)-4-acetamido-4-carboxybutanoyl]amino]-4-carboxybutanoyl]amino]-4-carboxybutanoyl]amino]-4-carboxybutanoyl]-[Arg12,Leu16,Lys24,Leu27,Ser28]-Glucagon] (H-HSQGTFTSDYSRYLDLRRAQDFVK([γGlu-γGlu-γGlu-γGlu-Ac])WLLST-OH)
2.9 | CC(=O)N[C@@H](CCC(=O)N[C@@H](CCC(=O)N[C@@H](CCC(=O)N[C@@H](CCC(=O)NCCCC[C@H](NC(=O)[C@@H](NC(=O)[C@H](Cc1ccccc1)NC(=O)[C@H](CC(=O)O)NC(=O)[C@H](CCC(N)=O)NC(=O)[C@H](C)NC(=O)[C@H](CCCNC(=N)N)NC(=O)[C@H](CCCNC(=N)N)NC(=O)[C@H](CC(C)C)NC(=O)[C@H](CC(=O)O)NC(=O)[C@H](CC(C)C)NC(=O)[C@H](Cc1ccc(O)cc1)NC(=O)[C@H](CCCCN)NC(=O)[C@H](CO)NC(=O)[C@H](Cc1ccc(O)cc1)NC(=O)[C@H](CC(=O)O)NC(=O)[C@H](CO)NC(=O)[C@@H](NC(=O)[C@H](Cc1ccccc1)NC(=O)[C@@H](NC(=O)CNC(=O)[C@H](CCC(N)=O)NC(=O)[C@H](CO)NC(=O)[C@@H](N)Cc1c[nH]cn1)[C@@H](C)O)[C@@H](C)O)C(C)C)C(=O)N[C@@H](Cc1c[nH]c2ccccc12)C(=O)N[C@@H](CC(C)C)C(=O)N[C@@H](CC(C)C)C(=O)N[C@@H](CO)C(=O)N[C@H](C(=O)O)[C@@H](C)O)C(=O)O)C(=O)O)C(=O)O)C(=O)O [Example 38, N^ε24-[(4S)-4-[[(4S)-4-[[(4S)-4-[[(4S)-4-acetamido-4-carboxybutanoyl]amino]-4-carboxybutanoyl]amino]-4-carboxybutanoyl]amino]-4-carboxybutanoyl]-[Leu16,Lys24,Leu27,Ser28]-Glucagon]

Source: US20140031278A1, “Novel Glucagon Analogues” (NOVO NORDISK A/S, priority 2011, published 2014)
